Test results as given in patent publication US20050107257A1, “Derivatives of (1-benzyl-piperidine-4-yl)-diphenyl-methanol and their use as pesticide” (priority 2002, published 2005).

Key:
Spodoptera littoralis = test: Action against Spodoptera littoralis caterpillars (sprayed soybean plants); format: in vivo; conditions: 72 h, 400 ppm spray mixture, third-stage caterpillars, evaluation 3 days later, read-out: % activity (percentage reduction in population and percentage reduction in feeding damage)
Experimental: (§1) Young soybean plants are sprayed with an aqueous emulsion spray mixture comprising 400 ppm of test compound. After the spray-coating has dried, the soybean plants are populated with 10 caterpillars of Spodoptera littoralis in the third stage and placed in a plastics container. Evaluation is made 3 days later. The percentage reduction in population and the percentage reduction in feeding damage (% activity) are determined by comparing the number of dead caterpillars and the feeding damage on the treated plants with that on untreated plants.

Plutella xylostella = test: Action against Plutella xylostella caterpillars (sprayed cabbage plants); format: in vivo; conditions: 72 h, 400 ppm spray mixture, third-stage caterpillars, evaluation 3 days later, read-out: % activity (percentage reduction in population and percentage reduction in feeding damage)
Experimental: as §1, with “Young cabbage plants are” for “Young soybean plants are”, “dried, the cabbage plants are” for “dried, the soybean plants are”, “caterpillars of Plutella xylostella in the” for “caterpillars of Spodoptera littoralis in the”, “that on the untreated plants.” for “that on untreated plants.”

Diabrotica balteata = test: Action against Diabrotica balteata larvae (sprayed maize seedlings); format: in vivo; conditions: 144 h, 400 ppm spray mixture, second-stage larvae, evaluation 6 days later, read-out: % activity (percentage reduction in population)
Experimental: Maize seedlings are sprayed with an aqueous emulsion spray mixture comprising 400 ppm of the test compound. After the spray-coating has dried, the maize seedlings are populated with 10 Diabrotica balteata larvae in the second stage and placed in a plastics container. Evaluation is made 6 days later. The percentage reduction in population (% activity) is determined by comparing the number of dead larvae on the treated plants with that on untreated plants.

Heliothis virescens = test: Action against Heliothis virescens caterpillars (sprayed soybean plants); format: in vivo; conditions: 144 h, 400 ppm spray mixture, first-stage caterpillars, evaluation 6 days later, read-out: % activity (percentage reduction in population and percentage reduction in feeding damage)
Experimental: as §1, with “Heliothis virescens” for “Spodoptera littoralis”, “first” for “third”, “6” for “3”

For `CC(C)OC(=O)Nc1ccc(CN2CC[C@@H](C(O)(c3ccc(C(F)(F)F)cc3)c3ccc(C(F)(F)F)cc3)[C@H](C)C2)cc1` [Compound 2.6], the inhibition at 400 ppm (Spodoptera littoralis) was > 80%, the melting point was 66 to 67 °C and the inhibition at 400 ppm (Plutella xylostella) was > 80%. The inhibition at 400 ppm (Diabrotica balteata) was > 80% and the inhibition at 400 ppm (Heliothis virescens) was > 80%.

In the case of `CC(C)OC(=O)Nc1ccc(C[N+]2([O-])CC[C@@H](C(O)(c3ccc(C(F)(F)F)cc3)c3ccc(C(F)(F)F)cc3)[C@H](C)C2)cc1` (some centres unmarked) [Compound 2.5], the inhibition at 400 ppm (Spodoptera littoralis) is reported as > 80%, the melting point is reported as 188 to 190 °C and the inhibition at 400 ppm (Plutella xylostella) is reported as > 80%. The inhibition at 400 ppm (Diabrotica balteata) was > 80% and the inhibition at 400 ppm (Heliothis virescens) was > 80%.

Work on `CCC1=C(C(O)(c2ccc(C(F)(F)F)cc2)c2ccc(C(F)(F)F)cc2)CC[N+]([O-])(Cc2ccc(NC(=O)OC(C)C)cc2)C1` (centres unmarked) [Compound 1.11] yielded a melting point of 207 to 211 °C.
